Test results: PubChem BioAssay AID1963874 (Molecular Pharmacology Branch, DTP, NCI, 2024)

System: 253994-281-T-J1-PDC KRAS-mutant spheroids with HUVEC/MSC, viability
Assay: Anticancer human tumor 253994-281-T-J1-PDC patient-derived colorectal carcinoma cell line growth inhibition [KRAS2]
Conditions: for IC50: curve of first compound; for viability, T/C: stronger effect = lower value
In short: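 KRAS-mutant tumor cells were grown as spheroids with HUVEC endothelial cells and human MSCs as stroma. Targeted agents were tested alone and with KRAS pathway inhibitors. Doses started at or near clinical Cmax, or 10 microM, descending half-log.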

[1] = second compound 0.1 µM, first compound 0.0316 µM
[2] = second compound 0.1 µM, first compound 0.1 µM
[3] = second compound 0.1 µM, first compound 0.316 µM
[4] = second compound 0.1 µM, first compound 1 µM
[5] = second compound 0.1 µM, first compound 3.16 µM
[6] = second compound 0.1 µM, first compound 10 µM
[7] = second compound 0.316 µM, first compound 0.0316 µM
[8] = second compound 0.316 µM, first compound 0.1 µM
[9] = second compound 0.316 µM, first compound 0.316 µM
[10] = second compound 0.316 µM, first compound 1 µM
[11] = second compound 0.316 µM, first compound 3.16 µM
[12] = second compound 0.316 µM, first compound 10 µM
[13] = second compound 1 µM, first compound 0.0316 µM
[14] = second compound 1 µM, first compound 0.1 µM
[15] = second compound 1 µM, first compound 0.316 µM
[16] = second compound 1 µM, first compound 1 µM
[17] = second compound 1 µM, first compound 3.16 µM
[18] = second compound 1 µM, first compound 10 µM
[19] = second compound 3.16 µM, first compound 0.0316 µM
[20] = second compound 3.16 µM, first compound 0.1 µM
[21] = second compound 3.16 µM, first compound 0.316 µM
[22] = second compound 3.16 µM, first compound 1 µM
[23] = second compound 3.16 µM, first compound 3.16 µM
[24] = second compound 3.16 µM, first compound 10 µM
[25] = second compound 10 µM, first compound 0.0316 µM
[26] = second compound 10 µM, first compound 0.1 µM
[27] = second compound 10 µM, first compound 0.316 µM
[28] = second compound 10 µM, first compound 1 µM
[29] = second compound 10 µM, first compound 3.16 µM
[30] = second compound 10 µM, first compound 10 µM
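Also: spheroids exposed to agents for seven days before readout.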
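For viability, T/C in this document: percent of DMSO vehicle control viability.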

Structure (SMILES): CCNC(=O)CC1N=C(c2ccc(Cl)cc2)c2cc(OC)ccc2-n2c(C)nnc21 (stereo not given) + CNCc1ccccc1-c1csc(C(C)Nc2nc(C)nc3cc(OC)c(OC)cc23)c1
- IC50 (second compound 0.1 µM): > 10000 nM
- IC50 (second compound 0.316 µM): > 10000 nM
- IC50 (second compound 1 µM): > 10000 nM
- IC50 (second compound 3.16 µM): 64 nM
- IC50 (second compound 10 µM): < 31.6 nM
- viability, T/C [1]: 106%
- viability, T/C [2]: 103%
- viability, T/C [3]: 86.8%
- viability, T/C [4]: 85.8%
- viability, T/C [5]: 91.7%
- viability, T/C [6]: 88.9%
- viability, T/C [7]: 110%
- viability, T/C [8]: 100%
- viability, T/C [9]: 101%
- viability, T/C [10]: 90%
- viability, T/C [11]: 87.3%
- viability, T/C [12]: 78.1%
- viability, T/C [13]: 87.3%
- viability, T/C [14]: 106%
- viability, T/C [15]: 103%
- viability, T/C [16]: 88.4%
- viability, T/C [17]: 79%
- viability, T/C [18]: 64.3%
- viability, T/C [19]: 48.9%
- viability, T/C [20]: 53.7%
- viability, T/C [21]: 42.8%
- viability, T/C [22]: 38.2%
- viability, T/C [23]: 34.8%
- viability, T/C [24]: 27.7%
- viability, T/C [25]: 0.26%
- viability, T/C [26]: 0.24%
- viability, T/C [27]: 0.23%
- viability, T/C [28]: 0.18%
- viability, T/C [29]: 0.18%
- viability, T/C [30]: 0.29%

Structure (SMILES): Cn1nccc1Nc1nccc(-c2cc3c(s2)C(C)(C)N(CCN2CCOCC2)C3=O)n1 + CNCc1ccccc1-c1csc(C(C)Nc2nc(C)nc3cc(OC)c(OC)cc23)c1
- IC50 (second compound 0.1 µM): 2140 nM
- IC50 (second compound 0.316 µM): 1520 nM
- IC50 (second compound 1 µM): 863 nM
- IC50 (second compound 3.16 µM): < 31.6 nM
- IC50 (second compound 10 µM): < 31.6 nM
- viability, T/C [1]: 97.5%
- viability, T/C [2]: 102%
- viability, T/C [3]: 87.6%
- viability, T/C [4]: 74.6%
- viability, T/C [5]: 37.1%
- viability, T/C [6]: 23.8%
- viability, T/C [7]: 106%
- viability, T/C [8]: 89.2%
- viability, T/C [9]: 84%
- viability, T/C [10]: 60.7%
- viability, T/C [11]: 31.8%
- viability, T/C [12]: 19.4%
- viability, T/C [13]: 87.7%
- viability, T/C [14]: 73.2%
- viability, T/C [15]: 67.9%
- viability, T/C [16]: 49.8%
- viability, T/C [17]: 24%
- viability, T/C [18]: 10%
- viability, T/C [19]: 44.4%
- viability, T/C [20]: 46.3%
- viability, T/C [21]: 29.3%
- viability, T/C [22]: 0.46%
- viability, T/C [23]: 0.39%
- viability, T/C [24]: 0.26%
- viability, T/C [25]: 0.25%
- viability, T/C [26]: 0.16%
- viability, T/C [27]: 0.15%
- viability, T/C [28]: 0.14%
- viability, T/C [29]: 0.39%
- viability, T/C [30]: 0.2%

Structure (SMILES): CC(=O)OC12COC1CC(O)C1(C)C(=O)C(O)C3=C(C)C(OC(=O)C(O)C(NC(=O)OC(C)(C)C)c4ccccc4)CC(O)(C(OC(=O)c4ccccc4)C21)C3(C)C (stereo not given) + COc1cc2nc(C)nc(NC(C)c3cc(N)cc(C(F)(F)F)c3)c2cc1OC1CCOC1
- IC50 (second compound 0.1 µM): 16.7 nM
- IC50 (second compound 0.316 µM): < 10 nM
- IC50 (second compound 1 µM): < 10 nM
- IC50 (second compound 3.16 µM): < 10 nM
- IC50 (second compound 10 µM): < 10 nM
- viability, T/C (second compound 0.1 µM, first compound 0.01 µM): 61.3%
- viability, T/C [1]: 35.7%
- viability, T/C [2]: 26.1%
- viability, T/C [3]: 20.6%
- viability, T/C [4]: 22.6%
- viability, T/C [5]: 19.6%
- viability, T/C (second compound 0.316 µM, first compound 0.01 µM): 46.2%
- viability, T/C [7]: 26.9%
- viability, T/C [8]: 21.4%
- viability, T/C [9]: 19.7%
- viability, T/C [10]: 18.8%
- viability, T/C [11]: 19.1%
- viability, T/C (second compound 1 µM, first compound 0.01 µM): 35.9%
- viability, T/C [13]: 41.4%
- viability, T/C [14]: 21.6%
- viability, T/C [15]: 19.9%
- viability, T/C [16]: 19.7%
- viability, T/C [17]: 22.8%
- viability, T/C (second compound 3.16 µM, first compound 0.01 µM): 25.8%
- viability, T/C [19]: 21.6%
- viability, T/C [20]: 17.4%
- viability, T/C [21]: 18%
- viability, T/C [22]: 20.1%
- viability, T/C [23]: 20.6%
- viability, T/C (second compound 10 µM, first compound 0.01 µM): 20.1%
- viability, T/C [25]: 22.4%
- viability, T/C [26]: 19.2%
- viability, T/C [27]: 23.3%
- viability, T/C [28]: 20.2%
- viability, T/C [29]: 25.4%
